Measured values as given in publication PMC3987113 (Toxicology and applied pharmacology, 2009).
“Also recorded” adds a separate entry of the source.

Tests used:
[1] = Body and liver weights, time course study; assay type: in vivo, C57BL/6 mice; settings: 300 mg/kg PCB153 or 30 μg/kg TCDD, mean ± SD, n=5; for Body weight gain: terminal body weight divided by body weight prior to dosing
[2] = Hepatic tissue level quantification by HRGC/HRMS; assay type: in vivo, C57BL/6 mice; settings: liver, 168 h vs 24 h; single gavage 300 mg/kg PCB153 or 30 μg/kg TCDD
[3] = tested on: liver of immature, ovariectomized C57BL/6 mice; experiment: Liver histopathology; assay type: in vivo; settings: 300 mg/kg PCB153 or 30 μg/kg TCDD
[4] = tested on: hepatic gene expression; experiment: Hepatic gene expression, Agilent 4 x 44K microarrays; assay type: in vivo, C57BL/6 mice; settings: hepatic mRNA, 30 μg/kg TCDD; maximum fold change, |fold change|≥1.5, P1(t)≥0.90
[5] = tested on: hepatic gene expression; experiment: QRT-PCR verification of hepatic gene expression; assay type: in vivo, C57BL/6 mice
[6] = tested on: hepatic gene expression; settings: hepatic mRNA, cDNA microarray, 30 μg/kg TCDD; maximum fold change, |fold change|≥1.5, P1(t)≥0.90; ref Boverhof et al. 2005; cited from earlier work
[7] = tested on: liver of immature, ovariectomized C57BL/6 mice; settings: ref Boverhof et al. 2005; Kopec et al. 2008; cited from earlier work
[8] = 300 μg/kg PCB126; ref Kopec et al. 2008; cited from earlier work
[9] = liver, PCB126; ref Kopec et al. 2008; cited from earlier work

Clc1cc2c(cc1Cl)Oc1cc(Cl)c(Cl)cc1O2 [TCDD, 2,3,7,8-tetrachlorodibenzo-p-dioxin, reference compound]
Liver weight ([1]; 4 h): 0.733 ± 0.044 g | Relative liver weight ([1]; 4 h): 0.054 ± 0.003 | Body weight gain ([1]; 4 h): 1.0 ± 0.0 | Terminal body weight ([1]; 4 h after single gavage): 13.6 ± 0.8 g | Liver weight ([1]; 12 h): 0.724 ± 0.025 g | Relative liver weight ([1]; 12 h): 0.056 ± 0.001 | Body weight gain ([1]; 12 h): 1.1 ± 0.0 | Terminal body weight ([1]; 12 h after single gavage): 12.8 ± 0.7 g | Liver weight ([1]; 24 h): 0.973 ± 0.088 g | Relative liver weight ([1]; 24 h): 0.068 ± 0.003 | Body weight gain ([1]; 24 h): 1.1 ± 0.0 | Terminal body weight ([1]; 24 h after single gavage): 14.2 ± 0.9 g | Liver weight ([1]; 72 h): 1.068 ± 0.060 g | Relative liver weight ([1]; 72 h): 0.071 ± 0.003 | Body weight gain ([1]; 72 h): 1.2 ± 0.1 | Terminal body weight ([1]; 72 h after single gavage): 15.1 ± 0.7 g | Liver weight ([1]; 168 h): 1.263 ± 0.080 g | Relative liver weight ([1]; 168 h): 0.072 ± 0.003 | Body weight gain ([1]; 168 h): 1.3 ± 0.0 | Terminal body weight ([1]; 168 h after single gavage): 17.5 ± 0.4 g | Decrease of hepatic level after 7 days [2]: ~ 1.4 fold | Hepatic lipid accumulation, Oil Red O staining [3]: significant lipid accumulation | Necrosis and immune (mixed) cell infiltration in liver [3]: more dramatic vacuolization, and necrosis, as well as mixed cell infiltration | Hepatic inflammation ([3]; time course): moderate multifocal inflammation; also recorded: instances of multifocal inflammation | Hepatocellular vacuolization, time course study ([3]; Fig. 2 at 168 h): more severe; also recorded: slight to moderate vacuolization | TCDD fold change, Abcc3 [4]: 1.7 fold | TCDD fold change, Acsl3 [4]: −2.3 fold | TCDD fold change, Agpat4 [4]: no change | TCDD fold change, Akr1b7 [4]: no change | TCDD fold change, Akr1c20 [4]: −1.7 fold | TCDD fold change, Aox1 [4]: 2.2 fold | TCDD fold change, Cdca2 [4]: no change | TCDD fold change, Cds2 [4]: no change | TCDD fold change, Ces2 [4]: 2.5 fold | TCDD fold change, Cyp2b9 [4]: no change | TCDD fold change, Cyp2b10 [4]: 2.3 fold | TCDD fold change, Cyp2b23 [4]: no change | TCDD fold change, Cyp2c54 [4]: no change | TCDD fold change, Cyp2c55 [4]: 1.8 fold | TCDD fold change, Cyp3a25 [4]: no change | TCDD fold change, Dhfr [4]: no change | TCDD fold change, Elovl6 [4]: −4.3 fold | TCDD fold change, Fasn [4]: −4.3 fold | TCDD fold change, Fmo5 [4]: no change | TCDD fold change, Gadd45a [4]: −3.6 fold | TCDD fold change, Gadd45b [4]: 3.2 fold | TCDD fold change, Gpx2 [4]: no change | TCDD fold change, Gsta2 [4]: 5.9 fold | TCDD fold change, Gstm4 [4]: 2.4 fold | TCDD fold change, Gstt3 [4]: 1.5 fold | TCDD fold change, Hmgcr [4]: −2.6 fold | TCDD fold change, Hsd17b2 [4]: 2.2 fold | TCDD fold change, Insig2 [4]: −1.7 fold | TCDD fold change, Mad1l1 [4]: no change | TCDD fold change, Myc [4]: 3.0 fold | TCDD fold change, Nol3 [4]: no change | TCDD fold change, Pla2g12a [4]: 3.1 fold | TCDD fold change, Slc1a4 [4]: no change | TCDD fold change, Slc23a1 [4]: −1.7 fold | TCDD fold change, Smpd3 [4]: −2.6 fold | TCDD fold change, Srebf1 [4]: −2.3 fold | TCDD fold change, Srebf2 [4]: −1.7 fold | TCDD fold change, Ugdh [4]: 2.7 fold | TCDD fold change, Zwint [4]: no change | Regulation of PCB153-responsive (CAR/PXR) genes by TCDD ([5]; 30 μg/kg TCDD, Table 3 and Fig. 5C): reciprocally modest; also recorded: minimal differential expression | Cyp1a2 induction ([5]; hepatic mRNA, time course, 30 μg/kg TCDD (Fig. 6A) or 300 mg/kg PCB153 (Fig. 6B)): ~ 30 fold | Elovl5 fold change ([5]; hepatic mRNA, time course, 300 mg/kg PCB153 or 30 μg/kg TCDD (Fig. 6A-B)): 2.2 fold | TCDD time course Boverhof et al., Abcc3 fold change [6]: 1.5 fold | TCDD time course Boverhof et al., Agpat4 fold change [6]: no change | TCDD time course Boverhof et al., Akr1b7 fold change [6]: no change | TCDD time course Boverhof et al., Cds2 fold change [6]: no change | TCDD time course Boverhof et al., Ces2 fold change [6]: 1.6 fold | TCDD time course Boverhof et al., Cyp2b10 fold change [6]: no change | TCDD time course Boverhof et al., Dhfr fold change [6]: −1.5 fold | TCDD time course Boverhof et al., Elovl6 fold change [6]: −1.8 fold | TCDD time course Boverhof et al., Fasn fold change [6]: −1.9 fold | TCDD time course Boverhof et al., Fmo5 fold change [6]: no change | TCDD time course Boverhof et al., Gadd45b fold change [6]: 4.6 fold | TCDD time course Boverhof et al., Gpx2 fold change [6]: no change | TCDD time course Boverhof et al., Gsta2 fold change [6]: 7.2 fold | TCDD time course Boverhof et al., Gstt3 fold change [6]: no change | TCDD time course Boverhof et al., Insig2 fold change [6]: no change | TCDD time course Boverhof et al., Myc fold change [6]: 3.7 fold | TCDD time course Boverhof et al., Nol3 fold change [6]: no change | TCDD time course Boverhof et al., Slc1a4 fold change [6]: no change | TCDD time course Boverhof et al., Srebf1 fold change [6]: −2.1 fold | TCDD time course Boverhof et al., Srebf2 fold change [6]: 1.5 fold | TCDD time course Boverhof et al., Ugdh fold change [6]: 3.1 fold | Hepatocyte cell size and number [7]: not affected

Clc1ccc(-c2cc(Cl)c(Cl)c(Cl)c2)cc1Cl [PCB126, 3,3′,4,4′,5-pentachlorobiphenyl]
Effect on relative liver weight (RLW) [8]: also increased RLW at later time points | Hepatic level over time [9]: continued to increase throughout the study, reaching the highest concentration at 7 days | Hepatocyte cell size and number [7]: not affected
